Here are results for 22 compounds from patent US6787541B1, “Thieno-and furopyrimidine derivatives as A2A-receptor antagonists” (Vernalis Research Limited, priority 1999, dated 2004).

Structures are written as SMILES.

The test system of one data set is Parkinsonian patients. To be noted: cited from earlier work.
The test system of another data set is cataleptic responses. Particulars: cited from earlier work.
The target in data set [1] is T1, human adenosine A2A receptors expressed in HEK-293 cells (Homo sapiens, UniProt P29274).
T1 construct: expressed in transfected cells; host or cells: HEK-293 cells
T1 sequence (P29274 whole entry): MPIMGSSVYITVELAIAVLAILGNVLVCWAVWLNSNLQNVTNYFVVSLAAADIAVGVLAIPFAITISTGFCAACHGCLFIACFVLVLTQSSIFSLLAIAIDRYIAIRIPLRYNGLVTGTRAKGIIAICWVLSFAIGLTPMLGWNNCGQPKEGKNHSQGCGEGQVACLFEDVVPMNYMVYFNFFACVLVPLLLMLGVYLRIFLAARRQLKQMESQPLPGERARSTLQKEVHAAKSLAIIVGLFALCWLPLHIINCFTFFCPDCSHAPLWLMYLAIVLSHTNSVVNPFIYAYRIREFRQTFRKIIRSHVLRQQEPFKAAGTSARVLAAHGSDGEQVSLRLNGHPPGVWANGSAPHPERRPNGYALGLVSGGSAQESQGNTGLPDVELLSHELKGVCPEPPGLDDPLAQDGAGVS
Briefly: Binding affinities at hA2A receptors, displacement of [3H]-CGS 21680.

The test system of data set [2] is haloperidol-induced deficits in locomotor activity in mice. Kind of data set: Haloperidol-induced hypolocomotion model. Format: in vivo. To be noted: intraperitoneally at a dose of 10 mg/kg. The text has this: Haloperidol-induced Hypolocomotion Model
This approach is also considered a valid method for screening drugs with potential antiparkinsonian effects. Thus, the ability of novel adenosine antagonists to block haloperidol-induced deficits in locomotor activity in mice can be used to assess both in vivo and potential antiparkinsonian efficacy.
Female TO mice (25-30 g) obtained from TUCK, UK, are used for all experiments. Animals are housed in groups of 8 [cage size—40 (width)×40 (length)×20 (height)cm] under 12 hr light/dark cycle (lights on 08:00 hr), in a temperature (20±2° C.) and humidity (55±15%) controlled environment. Animals have free access to food and water, and are allowed at least 7 days to acclimatize after delivery before experimental use.
Liquid injectable haloperidol (1 ml Serenance ampoules from Baker Norton, Harlow, Essex, each containing haloperidol BP 5 mg, batch # P424) are diluted to a final concentration of 0.02 mg/ml using saline. Test compounds are typically prepared as aqueous suspensions in 8% Tween. […]
1.5 hours before testing, mice are administered 0.2 mg/kg haloperidol, a dose that reduces baseline locomotor activity by at least 50%. […] Horizontal locomotor activity is determined by placing the cages within a frame containing a 3×6 array of photocells linked to a computer, which tabulates beam breaks. […]

Turning to `Cn1c(=O)c2[nH]cnc2n(C)c1=O` [theophylline, 1,3-dimethylxanthine], the “mean objective disability scores” value in the data set on Parkinsonian patients (15 Parkinsonian patients, up to 12 weeks, 150 mg/day oral) is “significant improvements”. In addition, the “patients reporting moderate or marked subjective improvement” value in the data set with Parkinsonian patients (of 15 Parkinsonian patients, up to 12 weeks, 150 mg/day oral) is 11. In addition, the serum theophylline levels with Parkinsonian patients (slow release oral theophylline preparation 150 mg/day, after one week) is given as 4.44 mg/L.

On to `CCCn1c(=O)c2c(nc(/C=C/c3ccc(OC)c(OC)c3)n2C)n(CCC)c1=O` [KF 17837, (E)-8-(3,4-dimethoxystyryl)-1,3-dipropyl-7-methylxanthine], for which, in the data set on cataleptic responses (in vivo), the “anticataleptic effects of a subthreshold dose of L-DOPA plus benserazide” value is “potentiated”; the “catalepsy induced by haloperidol and reserpine” value was “reduced”. In the data set on cataleptic responses (oral administration), the “cataleptic responses induced by intracerebroventricular administration of CGS 21680” value is reported as “significantly ameliorated”.

`Cc1ccccc1C(=O)c1nc(C(F)(F)F)nc2ccsc12` [Example 11, 2-Methylphenyl 2-trifluoromethylthieno[3,2-d]pyrimidin-4-ylmethanone] registered a melting point of 116 to 118 °C. Besides, in data set [1], the affinity corresponds to a Ki of 330 nM.

On to `CCOc1nc(C(=O)c2cccs2)c2sccc2n1` [Example 73, 2-Ethoxythieno[3,2-d]pyrimidin-4-yl 2-thienylmethanone], for which the melting point lay in the range of 164.6 to 165.4 °C. This compound displayed an inhibition constant (Ki) in data set [1] of 48 nM.

`COc1ccc(C(=O)c2nc(C(F)(F)F)nc3ccsc23)s1` [Example 68, 5-Methoxy-2-thienyl 2-trifluoromethylthieno[3,2-d]pyrimidin-4-ylmethanone] returned a melting point of 160 to 162 °C. The compound also yielded a Ki in data set [1] of 105 nM.

Take `CCOC(=O)CCCNc1nc(C(=O)c2cccs2)c2sccc2n1` [Example 76, Ethyl 4-(4-(2-thienylcarbonyl)thieno[3,2-d]pyrimidin-2-ylamino)butanoate]: the melting point lay in the range of 143.3 to 143.7 °C. In data set [1], this compound displayed an inhibitory constant (Ki) of 8 nM.

`O=C(c1cccs1)c1nc(N2CCC(O)CC2)nc2ccsc12` [Example 86, 2-(4-Hydroxypiperidin-1-yl)thieno[3,2-d]pyrimidin-4-yl 2-thienylmethanone]: the “reversal of haloperidol-induced hypolocomotion” value in data set [2] is “significantly reversed”.

`O=C(c1cc(Br)cs1)c1nc(C(F)(F)F)nc2ccsc12` [Example 57, 4-Bromo-2-thienyl 2-trifluoromethylthieno[3,2-d]pyrimidin-4-ylmethanone] yielded a melting point of 178 to 179 °C. Besides, the Ki in data set [1] amounted to 800 nM.

Turning to `COCCNc1nc(C(=O)c2cccs2)c2sccc2n1` [Example 65, 2-(2-Methoxyethylamino)thieno[3,2-d]pyrimidin-4-yl 2-thienylmethanone], the melting point was 135.6 to 135.9 °C. This compound also had a Ki in data set [1] of 21 nM.

Compound `Cc1ccsc1C(=O)c1nc(C(F)(F)F)nc2ccsc12` [Example 42, 3-Methyl-2-thienyl 2-trifluoromethylthieno[3,2-d]pyrimidin-4-ylmethanone] had a melting point of 201 to 202 °C. The compound further registered a Ki in data set [1] of 26 nM.

`Cc1ccsc1C(=O)c1nc(NCCO)nc2ccsc12` [Example 118, 2-(2-Hydroxyethylamino)thieno[3,2-d]pyrimidin-4-yl 3-methyl-2-thienylmethanone] came in with a melting point of 194.5 to 195 °C. The compound also had an inhibitory constant (Ki) in data set [1] of 7 nM.

Take `C=CCNc1nc(C(=O)c2cccs2)c2sccc2n1` [Example 59, 2-Allylaminothieno[3,2-d]pyrimidin-4-yl 2-thienylmethanone]: the melting point fell in the range of 142.1 to 142.9 °C. This compound returned a Ki in data set [1] of 18 nM.

As to `O=C(c1ccccc1)c1nc(Cl)nc2ccsc12` [Example 28, 2-Chlorothieno[3,2-d]pyrimidin-4-yl phenylmethanone], the melting point lay in the range of 162.2 to 163.1 °C. In data set [1], affinity was put at a Ki of 865 nM.

In turn, `O=C(c1ccc(Br)s1)c1nc(C(F)(F)F)nc2ccsc12` [Example 46, 5-Bromo-2-thienyl 2-trifluoromethylthieno[3,2-d]pyrimidin-4-ylmethanone] came in with a melting point of 180 to 182 °C. The compound further returned an inhibition constant Ki in data set [1] of 101 nM.

Compound `Cc1nc(C(C#N)c2ccccn2)c2sccc2n1` (stereo not drawn) [Example 64, 2-Methyl-α-(2-pyridyl)thieno[3,2-d]pyrimidine-4-acetonitrile] had a melting point of 266 to 269 °C. In addition, the Ki in data set [1] amounted to 529 nM.

`CC(C)(C)OC(=O)NCCNc1nc(C(=O)c2cccs2)c2sccc2n1` [Example 54, Tert-butyl (2-(4-(2-thienylcarbonyl)thieno[3,2-d]pyrimidin-2-yl)aminoethyl)carbamate] had a melting point of 199.9 to 200.7 °C. This compound had a Ki in data set [1] of 36 nM.

`CSc1nc(C(=O)c2cccs2)c2sccc2n1` [Example 48, 2-Methylthiothieno[3,2-d]pyrimidin-4-yl 2-thienylmethanone] displayed a melting point of 189.7 to 190.6 °C. In data set [1], this compound gave an inhibition constant (Ki) of 151 nM.

`O=C(c1ccccc1)c1nc(NCCO)nc2ccsc12` [Example 72, 2-(2-Hydroxyethylamino)thieno[3,2-d]pyrimidin-4-yl phenylmethanone] had a melting point of 114.1 to 114.9 °C. In addition, the Ki in data set [1] came to 126 nM.

`CC(C)Nc1nc(C(=O)c2cccs2)c2sccc2n1` [Example 61, 2-Isopropylaminothieno[3,2-d]pyrimidin-4-yl 2-thienylmethanone] gave a melting point of 134.8 to 135.6 °C. The compound further displayed a Ki in data set [1] of 21 nM.

Turning to `O=C(c1cccs1)c1nc(NCc2ccccn2)nc2ccsc12` [Example 95, 2-(2-Pyridylmethylamino)thieno[3,2-d]pyrimidin-4-yl 2-thienylmethanone], the melting point fell in the range of 178.6 to 179.3 °C. In data set [1], this compound came in with a Ki of 8 nM.

`CCc1nc(C(C#N)c2ccccn2)c2sccc2n1` (stereo not drawn) [Example 34, 2-Ethyl-α-(2-pyridyl)thieno[3,2-d]pyrimidine-4-acetonitrile] came in with a melting point of 240 to 242 °C. In addition, the affinity in data set [1] corresponds to a Ki of 245 nM.

Consider `CN(C)c1nc(C(=O)c2ccccc2)c2sccc2n1` [Example 40, 2-Dimethylaminothieno[3,2-d]pyrimidin-4-yl phenylmethanone], for which the melting point was 116.5 to 117 °C. The compound also displayed a Ki in data set [1] of 295 nM.

A word on the Ki: it is a measure of affinity in units of concentration, obtained from inhibition or displacement. The low end stands for tighter binding, the high end for weaker binding. A word on the melting point: it is the temperature, or range, at which the solid turns liquid.
